Source: paper PMC12298827, “Subchronic Toxicities of Four Per- and Polyfluoroalkyl Substances (PFASs) by Oral Exposure in Sprague–Dawley Rats” (Toxics, 2025)

Columns and labels:
[1] = Parent chemical in rat plasma, 14-day study; type: in vivo; conditions: for concentration at 15 day: Sprague-Dawley, rat, plasma, oral; for Percentage of the dose in the plasma: 14 days
Method: (§1) Dose-range-finding (14-day) studies were conducted using male and female rats to establish dose levels for 90-day studies and identify potential target organ toxicities. Male and female rats (n = 5 sex/group, a control and three dose groups, corn oil vehicle dose volume of 5 mL/kg) were administered PFASs by oral gavage daily for 14 days and euthanized on study day (SD) 15. The dose levels for PFHI, CTFPA, and MHFPK were 0, 30, 100, and 300 mg/kg-day. The dose levels for PFNAC were 0, 10, 30, and 100 mg/kg-day. The in vivo data collected included BW, BWCs, FC, cage-side observations, and physical exams. Gross necropsies, relative and absolute organ weights, and clinical chemistry data were collected for all the groups. Macroscopic and microscopic pathology examinations were conducted for the control and high-dose groups initially; the other groups were examined if justified by experimental findings. Plasma samples were analyzed ~2 h post dosing on day 1 and at day 15 for the parent PFAS chemical.
On SD 1 of the 14-day study (~2 h post dosing), 0.2 mL of blood was collected via tail vein puncture in tubes containing K3EDTA and stored on wet ice. Prior to the scheduled euthanasia, blood (~1 mL) was collected from the jugular vein in tubes containing K3EDTA and stored on wet ice on SD 15, for the 14-day study, and SD 91, for the 90-day study. All the tubes were centrifuged at an ~1500 relative centrifugal force within 1 h of collection for 15 min at 5 ± 3 °C. The plasma was stored at −75 ± 15 °C until the analysis. PFNAC and PFHI were analyzed using a headspace GC–mass spectrometry (MS) method, as summarized in Table S3, and CTFPA was analyzed using an ultra-HPLC-MS method, as summarized in Table S4. The MHFPK samples were not analyzed because a method suitable for plasma was not available. The details concerning the preparation of the samples, method blanks, and matrix and QC standards for the analysis are available in the appendices to the study reports.

[2] = Stability of dosing formulations in corn oil; type: physicochemical
Description: Based on solubility, corn oil (Welsh, Holme & Clark Inc., Newark, NJ, USA) was used as the vehicle for all four PFASs. Gas chromatography (GC) with flame ionization detection (FID) was used for the analysis of the PFNAC, PFHI, and MHFPK formulations, and a high-performance liquid chromatography (HPLC) method with ultraviolet spectroscopy was used for the CTFPA formulation. The details of the dosing solution analytical conditions are summarized in supplemental Tables S1 and S2. These analytical methods were developed specifically for these subchronic toxicity studies. […] Dosing solutions were prepared and replaced between at least every 29 days and no more than every 39 days.
PFNAC, PFHI, and MHFPK were soluble in corn oil up to 67, 200, and 100 mg/mL, respectively. As solubility in aqueous vehicles was 40 mg/mL or less for all three chemicals, corn oil was chosen as the vehicle. PFNAC was stable at the ambient temperature for 51 days at target concentrations of 0.2 and 10 mg/mL PFHI was stable in corn oil at ambient temperatures and target concentrations of 1 and 80 mg/mL for up to 70 days. MFHPK was stable in corn oil at room temperature for up to 44 days at target concentrations of 5 and 100 mg/mL. CTFPA was soluble in both deionized (DI) water and corn oil at 200 mg/mL when stored refrigerated overnight. […] Thus, corn oil was chosen as the vehicle for CTFPA. The stability of the CTFPA in the corn oil was evaluated for 8, 13, 15, 23, 35, and 42 days stored refrigerated in plastic bottles. CTFPA at 40 mg/mL was stable for up to 42 days. CTFPA at 0.6 mg/mL was stable for up to […] when refrigerated in plastic bottles but by 42 days had decreased to approximately 81%.

male and female SD rats = experiment: 14-day dose-range-finding oral gavage study; type: in vivo, rat; conditions: both sexes, all doses
Method: as §1
Neurotoxicity was evaluated using the functional observational battery (FOB) and measuring locomotor activity (LMA) 2–4 h post dosing on SDs 78–80 and 80–84, respectively. For both the 14- and 90-day studies, an ophthalmologic examination was conducted prior to randomization and near the end of the study, using indirect ophthalmoscopy and slit–lamp biomicroscopy (as needed) after the administration of a mydriatic solution.
Hematology, biochemistry, and coagulation endpoints were measured at the termination of the study. A Siemens Advia 2120i hematology analyzer (Siemens Healthineers, Erlangen, Germany) was used to measure (or calculate) the parameters related to the complete blood count, leukocyte differential count, and reticulocyte count. The hematology parameters are listed and described in Table 2. The prothrombin time […] and activated partial thromboplastin time (APTT) were measured using an Instrumentation Laboratory (Bedford, MA, USA) ACL Elite Pro coagulation analyzer (laser–nephelometric centrifugal method).
At necropsy, the rats were visually examined for external abnormalities and organ weights (absolute and relative to the BW and brain weight), which were recorded (paired organs weighed together). The tissues were preserved in 10% neutral buffered formalin (NBF), except for the ocular tissues, testes, and epididymides, which were preserved in modified Davidson’s fixative and later transferred to 10% NBF. Bone marrow smears were prepared from the femurs, and the slides were air-dried, fixed in methanol, stained, and stored at room temperature for possible future evaluation. The preserved tissues were embedded in paraffin, sectioned, stained with hematoxylin and eosin, and examined by a board-certified veterinary pathologist.

[3] = male, Day 1 (2 hours post dosing), 30 mg/kg-day
[4] = male, Day 1 (2 hours post dosing), 100 mg/kg-day
[5] = male, Day 1 (2 hours post dosing), 300 mg/kg-day

SMILES | concentration at 15 day ([1]; female, Day 15, 300 mg/kg-day) [ng/mL] | concentration at 15 day ([1]; male, Day 15, 100 mg/kg-day) [ng/mL] | concentration at 15 day ([1]; male, Day 15, 300 mg/kg-day) [ng/mL] | Parent chemical in plasma ([1]; female, Day 1, 30 mg/kg-day) | Parent chemical in plasma ([1]; female, Day 1, 100 mg/kg-day) | Parent chemical in plasma ([1]; female, Day 1, 300 mg/kg-day) | Parent chemical in plasma ([1]; female, Day 15, 100 mg/kg-day) | Parent chemical in plasma [1, 3] | Parent chemical in plasma [1, 4] | Bodyweight and bodyweight gain (male and female SD rats) | Clinical chemistry (male and female SD rats) | Clinical observations (male and female SD rats) | Coagulation endpoints (male and female SD rats) | Feed consumption (male and female SD rats) | Gross lesions (male and female SD rats) | Hematology (male and female SD rats) | Histopathology (male and female SD rats) | Morbidity and mortality (male and female SD rats) | Ophthalmology (male and female SD rats) | Organ weight changes (male and female SD rats) | further results
FC(F)(F)C(F)(F)C(F)(F)C(F)(F)CCI [PFHI, 1H,1H,2H,2H-Perfluorohexyl iodide] | 14.3 ± 7.12 | 4.87 ± 1.93 | 26.7 ± 8.79 | 14.7 ± 8.21 ng/mL | 470 ± 427 ng/mL | 1070 ± 689 ng/mL | ≤LOQ | 159 ± 79.3 ng/mL | 333 ± 147 ng/mL | No changes | Mild increases in cholesterol levels in both sexes at 300 mg/kg-day and mild increases in glucose in males only at ≥100 mg/kg-day; from minimal to moderate increases in phosphorus in both sexes in all the dose groups | None | No effects | Females: dose-dependent increase, not correlated with bodyweight changes; Males: no effects | None | Decreased red cell mass at 300 mg/kg-day in females and all the dose levels in males; minimal increases in absolute reticulocyte concentrations and from minimal to mild increases in MPV in both sexes at all the dose levels | Mild liver hypertrophy in 4/5 males at 300 mg/kg-day and in 1/5 at 100 mg/kg-day; none in females | None | No ocular lesions | Increases in absolute and relative liver weights in males at 300 mg/kg-day and increases in liver weight/bodyweight ratio at ≥100 mg/kg-day; no changes in females | Lower plasma concentration for SD 15 compared to SD 1 ([1]; 14-day study): 10- to 100 fold; Parent chemical in plasma ([1]; female, Day 15, 30 mg/kg-day): ND/BLOD; Parent chemical in plasma [1, 5]: 2040 ± 1250 ng/mL; Parent chemical in plasma ([1]; male, Day 15, 30 mg/kg-day): <BLOD/≤LOQ; Stable in corn oil for ([2]; ambient temperatures, 1 and 80 mg/mL): up to 70 days
C=CC(=O)OCC(F)(F)C(F)(F)C(F)(F)C(F)(F)C(F)(F)C(F)(F)C(F)(F)C(F)F [PFNAC, 1H,1H,9H-Perfluorononyl acrylate] | – | – | – | – | Parent chemical not detected at the highest dose | – | Parent chemical not detected at the highest dose | – | Parent chemical not detected at the highest dose | No changes | From mild to moderate decreases in mean cholesterol levels in males at all the dose levels and in females at 30 and 100 mg/kg-day, with from mild to moderate increases in triglycerides in both sexes at 100 mg/kg-day and in females at 30 mg/kg-day | None | No effects | No effects | None | No effects considered as chemical related | From minimal to moderate liver hypertrophy in males only in 2/5, 3/5, and 4/4 at doses of 10, 30, and 100 mg/kg-day, respectively | None | No ocular lesions | Dose-proportional increases in absolute and relative liver weights in all exposed males and females | Parent chemical in plasma ([1]; male, Day 15, 100 mg/kg-day): Parent chemical not detected at the highest dose; Stable in corn oil for ([2]; ambient temperature, 0.2 and 10 mg/mL): 51 days
CC(=O)C(F)(F)C(F)(F)C(F)(F)F [MHFPK, Methyl heptafluoropropyl ketone] | – | – | – | – | – | – | – | – | – | No changes | Minimal increases in BUN and creatinine at 300 mg/kg-day for males; increased creatinine in females at ≥100 mg/kg-day | None | No effects | No effects | None | No effects considered as chemical related | No test-substance-related changes | None | No ocular lesions | No test-substance-related changes | Stable in corn oil for ([2]; room temperature, 5 and 100 mg/mL): up to 44 days
O=C(O)C(F)(Cl)C(F)(F)F (stereo not drawn) [CTFPA, 2-Chloro-2,3,3,3-tetrafluoropropanoic acid] | 123000 | 99100 | 120000 | 46,700 ± 10,000 ng/mL | 107,000 ± 30,400 ng/mL | 297,000 ± 56,500 ng/mL | – | 48,400 ± 8430 ng/mL | 122,000 ± 43,800 ng/mL | No changes | Females: mild increases in albumin, A/G ratio and mild sporadic decreases in globulin and minimal increases in the total protein; males: minimal increases in calcium and from minimal to mild increases in BUN at all the dose levels. At 300 mg/kg-day, mild increases in ALPi | None | No effects | No effects | None | Mild increases in MPV in males at all the doses, not seen in females | From minimal to moderate diffuse hepatocellular hypertrophy seen in the livers of males at ≥30 mg/kg-day (5/5 in all the groups, with severity increasing with dose) and females at ≥100 mg/kg-day (5/5 with, severity increasing with dose) | None | No ocular lesions | Females: liver at >100 mg/kg-day; males: liver, dose-dependent pattern in all the dose groups | concentration at 15 day ([1]; female, Day 15, 30 mg/kg-day): 27200 ng/mL; concentration at 15 day ([1]; female, Day 15, 100 mg/kg-day): 45400 ng/mL; concentration at 15 day ([1]; male, Day 15, 30 mg/kg-day): 49800 ng/mL; Percentage of the dose in the plasma ([1]; female, 100 mg/kg-day): 1.75 ± 0.67%; Percentage of the dose in the plasma ([1]; male, 30 mg/kg-day): 6.39 ± 2.03%; Parent chemical in plasma [1, 5]: 321,000 ± 60,600 ng/mL; Concentration remaining in corn oil ([2]; 0.6 mg/mL, by 42 days, refrigerated): approximately 81%; Stable in corn oil for ([2]; 0.6 mg/mL, refrigerated in plastic bottles): up to 22 days; Stable in corn oil for ([2]; 40 mg/mL, refrigerated in plastic bottles): up to 42 days
